Test results: US20250032483A1, “COMPOSITIONS AND METHODS FOR TREATING PAIN” (ICAHN SCHOOL OF MEDICINE AT MOUNT SINAI, priority 2021, published 2025)
“Also recorded” adds a separate entry of the source.

Tests used:
[1] = Body weight during YM155 administration, CFA model; assay type: in vivo, mice; conditions: 5 mg/kg i.p. QD; first 9 days of treatment
Method: (§1) The inventors also tested whether YM155 had sustained effects on sensory hypersensitivity after the expected window of activity (approximately 24 hours post-injection, based on a ˜one hour half-life in intravenously-treated mice).
For studies using models of peripheral inflammation, two-to three-month old mice received 30 μL left hindpaw injections of Complete Freund's Adjuvant (CFA: diluted 1:1 in saline) or IFNB injections (300 U per 25 μL), as described previously. For studies using the post-operative incision model, two-to three-month-old mice received an incision from the posterior plantar surface of the hindpaw to the middle of the paw pads, in which dermis and superficial muscle was cut and dermis was sutured afterwards. CFA and paw incision groups of mice received daily intraperitoneal (i.p.) injections of saline (vehicle) or YM155 (Tocris Biosciences), an Interleukin Enhancer Binding Factor 3 (ILF3) inhibitor (2.5 or 5 mg/kg diluted in saline).

[2] = test system: paw incision model mice; assay: Locomotor activity after paw incision; assay type: in vivo; conditions: Day 1 post-paw incision; YM155 vs saline
Method: (§2) The inventors also tested whether YM155 could be used to prophylactically reduce pain experienced after acute post-operative injuries. For this, the inventors used the paw incision model and pre-treated animals at a dose of 5 mg/kg i.p, for seven days. Animals were not treated with drug after the incision.

[3] = test system: CFA model of peripheral inflammation in female mice; assay: Von Frey assay, CFA model; assay type: in vivo; conditions: 5 mg/kg i.p. QD, vs saline
Method: (§3) The inventors used the CFA model of peripheral inflammation in female mice to determine the impact of ILF3 inhibition in sensory hypersensitivity behaviors associated with inflammatory pain states. […] To identify any immediate analgesic effects of YM155 under local, peripheral inflammation conditions, the inventors first tested CFA-injected mice in the Von Frey and Hargreave's assays at 30 minutes post-drug administration.
as §1
For studies using models of peripheral inflammation, two-to three-month old mice received 30 μL left hindpaw injections of Complete Freund's Adjuvant (CFA: diluted 1:1 in saline) or IFNB injections (300 U per 25 μL), as described previously. […]
(§4) Hamsters/mice were placed on a raised grid platform in plastic containers and were allowed to habituate to their environment for a minimum of 10 minutes. Afterwards, filaments of ascending forces were applied to the left hindpaw and responses were recorded. […] Progression to the next filament was determined by recording of positive or negative responses for three out of five applications with each filament. […]

[4] = intravenously-treated mice; cited from earlier work
[5] = test system: mice; assay: Toxicity observed on dosing in mice; assay type: in vivo
[6] = test system: paw incision model mice; assay: Von Frey assay, paw incision model (pre-treatment); assay type: in vivo; conditions: pre-treatment 5 mg/kg i.p. for seven days; no drug after incision; vs saline
Method: as §2
(§5) For studies using models of peripheral inflammation, two-to three-month old mice received 30 μL left hindpaw injections of Complete Freund's Adjuvant (CFA: diluted 1:1 in saline) or IFNB injections (300 U per 25 μL), as described previously. For studies using the post-operative incision model, two-to three-month-old mice received an incision from the posterior plantar surface of the hindpaw to the middle of the paw pads, in which dermis and superficial muscle was cut and dermis was sutured afterwards. […]
as §4

[7] = test system: interferon-induced mechanical hypersensitivity in mice; assay: Von Frey assay, hindpaw IFNβ injection model; assay type: in vivo
Description: While the CFA model promotes both peripheral interferon and cytokine signaling. the inventors wanted to investigate the role of ILF3 inhibition in a model of isolated interferon signaling to better understand its role in virus-induced hypersensitivity. For this, the inventors implemented hindpaw interferon β (IFNβ) injections. The inventors compared mechanical thresholds between a group of female mice that received no IFNβ injection and daily saline (Naïve-Saline), a group that received a single IFNβ injection and daily saline (IFNβ-Saline). and a group that received a single IFNβ injection and immediate daily administration of YM155 (5 mg/kg i.p. BID: IFNβ-YM155). […] The inventors therefore performed an experiment in which a Naïve-Saline and IFNβ-Saline group began receiving YM155 (2.5 mg/kg i.p. BID) after mechanical thresholds were taken one day after intraplantar injections. […] ILF3 inhibition is effective at suppressing interferon-induced hypersensitivity in both mouse sexes. […]
as §4

[8] = test system: CFA model of peripheral inflammation in female mice; assay: Hargreaves' thermal beam assay, CFA model; assay type: in vivo; conditions: 5 mg/kg i.p. QD, vs saline
Method: as §3, §1, §5
The CFA model induces thermal hypersensitivity for 10-14 days on average. […] Three measurements were recorded and averaged for each hindpaw, with each measurement taking place at least two minutes apart.

[9] = CFA-injected female mice, 30-60 minutes after administration

COCCn1c2c([n+](Cc3cnccn3)c1C)C(=O)c1ccccc1C2=O [YM155]
post-CFA weight [1]: No changes in post-CFA weight were observed | locomotion / locomotor activity [2]: No differences in locomotion were observed; also recorded: no changes in locomotor activity | mechanical thresholds (von Frey), sustained ([3]; CFA mice, ~24 hours after administration, PD-D5, PD-D7, PD-D9): increased mechanical thresholds in a sustained fashion; also recorded: sustained recovery of mechanical thresholds | mechanical (von Frey) thresholds [3, 9]: increased mechanical thresholds; also recorded: increased von Frey thresholds | half-life [4]: one | toxicity ([5]; female mice, 20 mg/kg): lethal toxicity | toxicity ([5]; male mice, 2.5 mg/kg i.p. BID): did not observe toxicity | toxicity ([5]; male mice, 5 mg/kg dose): increased sensitivity to the drug and subsequent toxicity | mechanical hypersensitivity after paw incision [6]: significantly lower mechanical hypersensitivity after paw incision; also recorded: significant reduction in mechanical hypersensitivity | interferon-induced mechanical hypersensitivity (mechanical thresholds) ([7]; female mice, hindpaw IFNβ 300U/25 μL, concurrent YM155 5 mg/kg i.p., days 1 and 3 after IFNβ, 5 mg/kg): interrupted the onset of interferon-induced mechanical hypersensitivity; also recorded: no change in thresholds | mechanical thresholds, IFNβ group ([7]; male mice, 2.5 mg/kg i.p. BID started one day after intraplantar injection, by day three): substantial increase in mechanical thresholds | thermal thresholds / Hargreaves' withdrawal latency, sustained ([8]; CFA mice, ~24 hours post-injection, six consecutive days of administration (PD-D6)): increased thermal thresholds in a sustained fashion; also recorded: significantly higher withdrawal latency | thermal thresholds / Hargreaves' response times [8, 9]: increased thermal thresholds; also recorded: increased Hargreaves' response times
